Where two headings read alike, the source gives them in different places.
Columns and labels:
[1] = system: K-562 (human chronic myeloid leukaemia); test: MTT cytotoxicity assay, K-562; type: cell-based; settings: for IC50: Homo sapiens, K562, MTT, 72 h exposure, three independent experiments, read-out: Cytotoxic activity IC50 (95% CI) K-562; for Selectivity index K-562: ratio of cytotoxicity L929 / K-562
Method: (§1) In this study, the IC50 was obtained in micromolar concentrations, using the colourimetric MTT (3-(4,5-dimethylthiazol-2-yl)-2,5-diphenyl tetrazolium bromide)) assay, and doxorubicin was used as the positive control. […] The activity against the non-tumoural murine fibroblast cell line L929 was also evaluated in order to study the cytotoxicity behaviour of each compound and to understand their respective relative selectivity. The selectivity index was obtained using the ratio of measured cytotoxicity between the L929 cell line and each of the cancer cell lines, and the results are presented in Table 2.
(§2) The in vitro cytotoxicity activity of the compounds was evaluated by the colorimetric MTT (3-(4,5-dimethylthiazol-2-yl)-2,5-diphenyl tetrazolium bromide)) assay using the following tumor cell lines: HCT-116 (colon carcinoma), PC3 (prostate), SNB-19 (glioblastoma), K-562 (myelogenous leukaemia), HL-60 (human promyelocytic leukaemia), B16 (murine melanoma), A549 (human lung carcinoma), KG1 (human acute myeloid leukaemia), and RAJI (human Burkitt’s lymphoma), which were provided by the National Cancer Institute (Bethesda, MD, USA). The L929 cell line (mouse fibroblast L cells NCTC clone 929) employed in this study as a control cell line was obtained from the American Type Culture Collection (Manassas, VA, USA). The cell lines (Table S4) were maintained in flasks containing RPMI 1640 or DMEM medium supplemented with 10% bovive fetal sérum, 100 U/mL penicillin, and 100 μg/mL streptomycin at 37 °C and in 5% CO2 atmosphere. The compounds tested were dissolved in DMSO. Doxorubicin served as the positive control. Cell treatments were performed with three replicates and the cells were mycoplasma free. After 72 h incubation, 100 μL of MTT solution (0.5 mg/mL) was added to each well, and the cells were incubated for 3 h. The supernatant was removed and 100 μL of DMSO was added and the absorbance at 595 nm was measured using Victor Nivo Multimode plate reader (PerkinElmer, Waltham, MA, USA). The absorbances obtained were used to calculate the IC50 values by nonlinear regression employing appropriate statistical software.
(§3) The in vitro cytotoxicity activity of compounds was evaluated by the colorimetric MTT (3-(4,5-dimethylthiazol-2-yl)-2,5-diphenyl tetrazolium bromide)) assay using tumor cell lines: HCT-116 (colon carcinoma), PC3 (prostate), SNB-19 (glioblastoma), K-562 (myelogenous leukaemia), HL-60 (human promyelocytic leukaemia), B16 (murine melanoma), A549 (human lung carcinoma), KG1 (human acute myeloid leukaemia) and RAJI (human Burkitt's lymphoma), which were provided by the National Cancer Institute (Bethesda, MD, USA). The L929 cell line (mouse fibroblast L cells NCTC clone 929) employed in this study as a control cell line was obtained from the American Type Culture […]
(§4) Collection (Manassas, VA, USA). Cell lines (Table 01) were maintained in flasks containing RPMI 1640 or DMEM medium supplemented with 10% bovive fetal sérum, 100 U/mL penicillin, and 100 μg/mL streptomycin at 37 °C and 5% CO2 atmosphere.
(§5) Compounds tested were dissolved in DMSO. Doxorubicin served as positive control. Cell treatments were performed with three replicates and cells were mycoplasma-free. After 72 h incubation, 100 μL of MTT solution (0.5 mg/mL) was added to each well, and cells were incubated for 3 h. The supernatant was removed and 100 μL of DMSO was added and the absorbance at 595 nm was measured using Victor Nivo Multimode plate reader

B16 (murine melanoma) = test: MTT cytotoxicity assay, B16; type: cell-based; settings: for IC50: Mus musculus, MTT, 72 h exposure, three independent experiments, read-out: Cytotoxic activity IC50 (95% CI) B16; for Selectivity index B16: ratio of cytotoxicity L929 / B16
Method: as §1, §2, §3, §4, §5

[2] = system: A549 (human lung carcinoma); test: MTT cytotoxicity assay, A549; type: cell-based; settings: for IC50: Homo sapiens, A549, MTT, 72 h exposure, three independent experiments, read-out: Cytotoxic activity IC50 (95% CI) A549; for Selectivity index A549: ratio of cytotoxicity L929 / A549
Method: as §1, §2, §3, §4, §5

[3] = system: KG1 (human acute myeloid leukaemia); test: MTT cytotoxicity assay, KG1; type: cell-based; settings: for IC50: Homo sapiens, MTT, 72 h exposure, three independent experiments, read-out: Cytotoxic activity IC50 (95% CI) KG1; for Selectivity index KG1: ratio of cytotoxicity L929 / KG1
Method: as §1, §2, §3, §4, §5

[4] = system: PC3 (human prostate adenocarcinoma); test: MTT cytotoxicity assay, PC3; type: cell-based; settings: for IC50: Homo sapiens; for Selectivity index PC3: ratio of cytotoxicity L929 / PC3
Method: as §1, §2, §3, §4, §5

[5] = system: SNB-19 (human astrocytoma); test: MTT cytotoxicity assay, SNB-19; type: cell-based; settings: for IC50: Homo sapiens, SNB-19, MTT, 72 h exposure, three independent experiments, read-out: Cytotoxic activity IC50 (95% CI) SNB-19; for Selectivity index SNB-19: ratio of cytotoxicity L929 / SNB-19
Method: as §1, §2, §3, §4, §5

[6] = system: RAJI (human Burkitt’s lymphoma); test: MTT cytotoxicity assay, RAJI; type: cell-based; settings: for IC50: MTT, 72 h exposure, three independent experiments, read-out: Cytotoxic activity IC50 (95% CI) RAJI; for Selectivity index RAJI: ratio of cytotoxicity L929 / RAJI
Method: as §1, §2, §3, §4, §5

[7] = system: HL60 (human pro-myelocytic leukaemia); test: MTT cytotoxicity assay, HL60; type: cell-based; settings: for IC50: Homo sapiens, HL-60, 72 h, MTT, 72 h exposure, three independent experiments, read-out: Cytotoxic activity IC50 (95% CI) HL60; for Selectivity index HL60: ratio of cytotoxicity L929 / HL60
Method: as §1, §2, §3, §4, §5

[8] = system: HCT-116 (human colorectal carcinoma); test: MTT cytotoxicity assay, HCT-116; type: cell-based; settings: for IC50: Homo sapiens, HCT-116, 72 h, MTT, 72 h exposure, three independent experiments, read-out: Cytotoxic activity IC50 (95% CI) HCT-116; for Selectivity index HCT-116: ratio of cytotoxicity L929 / HCT-116
Method: as §1, §2, §3, §4, §5

[9] = MTT cytotoxicity assay, L929 control line; type: cell-based, mouse; settings: mouse, L929 fibroblast cells (non-tumoral control line), 72 h exposure, read-out: Cytotoxic activity IC50 (95% CI) L929
Method: as §1, §2, §3, §4, §5

[10] = MTT, 72 h exposure, three independent experiments, read-out: Cytotoxic activity IC50 (95% CI) PC3

| Compound | IC50 [1] [µM] | Selectivity index K-562 [1] | IC50 (B16 (murine melanoma)) [µM] | Selectivity index B16 (B16 (murine melanoma)) | IC50 [2] [µM] | Selectivity index A549 [2] | IC50 [3] [µM] | Selectivity index KG1 [3] | IC50 [4, 10] [µM] | Selectivity index PC3 [4] | IC50 [5] [µM] | Selectivity index SNB-19 [5] | IC50 ([6]; Homo sapiens, Raji, 72 h) [µM] | Selectivity index RAJI [6] | IC50 [7] [µM] | Selectivity index HL60 [7] | IC50 [8] [µM] | Selectivity index HCT-116 [8] | IC50 at 72 h [9] [µM] | also measured |
| --- | --- | --- | --- | --- | --- | --- | --- | --- | --- | --- | --- | --- | --- | --- | --- | --- | --- | --- | --- | --- |
| CC1(C)OC2=C(C(=O)C(=O)c3ccccc32)C1N=[N+]=[N-] (centres unmarked) [Compound 4, 3-azido-2,2-dimethyl-2,3-dihydronaphtho[1,2-b]furan-4,5-dione] | 1.42 | 1.9 | 1.77 | 1.5 | 3.65 | 0.8 | 5.98 | 0.5 | 5.93 | 0.5 | 2.09 | 1.3 | 2.46 | 1.1 | 1.08 | 2.5 | 1.96 | 1.4 | 2.74 | – |
| [N-]=[N+]=NCC1CC2=C(O1)c1ccccc1C(=O)C2=O (centres unmarked) [Compound 7, 2-(azidomethyl)-2,3-dihydronaphtho[1,2-b]furan-4,5-dione] | 0.98 | 3.5 | 1.99 | 1.7 | 2.63 | 1.3 | 3.67 | 0.9 | 2.25 | 1.5 | 1.43 | 2.4 | 0.53 | 6.5 | 0.59 | 5.9 | 1.8 | 1.9 | 3.46 | IC50 ([4]; 72 h, read-out: Bioactivity class according to IC50, PC3): 2 to 10 µM |
| C#CCNC1=CC(=O)c2c(I)cccc2C1=O [Compound 18a, 5-iodo-2-(prop-2-yn-1-ylamino)naphthalene-1,4-dione] | > 100 | – | 48.5 | 2.1 | > 100 | – | > 100 | – | > 100 | – | > 100 | – | > 100 | – | 38.3 | 2.6 | > 100 | – | > 100 | – |
| C#CCNC1=CC(=O)c2cccc(OC)c2C1=O [Compound 18c, 8-methoxy-2-(prop-2-yn-1-ylamino)naphthalene-1,4-dione] | > 100 | – | 43.8 | 2.3 | > 100 | – | > 100 | – | > 100 | – | > 100 | – | 39.3 | 2.5 | > 100 | – | > 100 | – | > 100 | – |
| C#CCNC1=CC(=O)c2cccc(OCc3ccccc3)c2C1=O [Compound 18d, 8-benzyloxy-2-(prop-2-yn-1-ylamino)naphthalene-1,4-dione] | > 100 | – | 35.5 | 2.8 | > 100 | – | > 100 | – | > 100 | – | > 100 | – | > 100 | – | 32 | 3.1 | > 100 | – | > 100 | – |
| C#CCNC1=CC(=O)c2cc3ccccc3cc2C1=O [Compound 18e, 2-(prop-2-yn-1-ylamino)anthracene-1,4-dione] | > 100 | – | > 100 | – | > 100 | – | > 100 | – | > 100 | – | > 100 | – | > 100 | – | > 100 | – | > 100 | – | > 100 | – |
| CC1(C)OC2=C(C(=O)C(=O)c3ccccc32)C1n1cc(CNC2=CC(=O)c3c(I)cccc3C2=O)nn1 (centres unmarked) [Compound 19a, 3-(4-(((5-iodo-1,4-dioxo-1,4-dihydronaphthalen-2-yl)amino)methyl)-1H-1,2,3-triazol-1-yl)-2,2-dimethyl-2,3-dihydronaphtho[1,2-b]furan-4,5-dione] | 1.21 | 1.0 | 1.87 | 0.6 | 2.56 | 0.5 | 1.37 | 0.9 | 3.65 | 0.3 | 0.99 | 1.2 | 2.02 | 0.6 | 0.44 | 2.8 | 1 | 1.2 | 1.21 | – |
| CC1(C)OC2=C(C(=O)C(=O)c3ccccc32)C1n1cc(CNC2=CC(=O)c3c(O)cccc3C2=O)nn1 (centres unmarked) [Compound 19b, 3-(4-(((5-hydroxy-1,4-dioxo-1,4-dihydronaphthalen-2-yl)amino)methyl)-1H-1,2,3-triazol-1-yl)-2,2-dimethyl-2,3-dihydronaphtho[1,2-b]furan-4,5-dione] | 3.16 | 1.9 | 3.55 | 1.7 | 3.16 | 1.9 | 5.24 | 1.1 | 3.16 | 1.9 | 3.35 | 1.8 | 2.55 | 2.3 | 0.99 | 6.0 | 1.7 | 3.5 | 5.97 | – |
| COc1cccc2c1C(=O)C(NCc1cn(C3C4=C(OC3(C)C)c3ccccc3C(=O)C4=O)nn1)=CC2=O (centres unmarked) [Compound 19c, 3-(4-(((8-methoxy-1,4-dioxo-1,4-dihydronaphthalen-2-yl)amino)methyl)-1H-1,2,3-triazol-1-yl)-2,2-dimethyl-2,3-dihydronaphtho[1,2-b]furan-4,5-dione] | 3.06 | 3.0 | 1.74 | 5.3 | 3.06 | 3.0 | 4.77 | 1.9 | 3.5 | 2.6 | 8.19 | 1.1 | 0.9 | 9.9 | 1.07 | 8.6 | 1.6 | 5.7 | 9.17 | IC50 [6]: 0.93 µM |
